Measurements from DBAASP.
In brackets after ≈: the same amount, converted by molar mass. Several values for one entry are separate records, joined by “and”; a condition that tells them apart may be missing. Equal values may be shown once. Values belong to the molecule of their own block, whether it stands above or below them.

Legend:
Assay in all cases: ≥ marks a high value that may be exact or a test limit, other limits are often not marked, values filed in µg/mL are converted to µM
[1] = test system: Lactobacillus delbrueckii subsp. bulgaricus CIDCA 331
[2] = test system: Lactobacillus delbrueckii subsp. lactis CIDCA 133
Escherichia coli DC2 = test system: Escherichia coli DC2
[3] = test system: Salmonella enterica subsp. enterica serovar Typhimurium ATCC 14028s
[4] = test system: Escherichia coli CGSC 4908
[5] = test system: Aeromonas salmonicida 97-4
[6] = test system: Staphylococcus epidermidis C621
[7] = test system: Salmonella enterica serovar typhimurium MS7953s
[8] = test system: Aeromonas salmonicida 99-1
[9] = test system: Staphylococcus aureus C623
Escherichia coli UB1005 = test system: Escherichia coli UB1005
[10] = test system: Pseudomonas aeruginosa K799
Candida albicans C627 = test system: Candida albicans C627
[11] = test system: Pseudomonas aeruginosa Z61
[12] = test system: Staphylococcus epidermidis ATCC 12228
[13] = test system: Lacticaseibacillus rhamnosus 1.0936
[14] = test system: Pseudomonas aeruginosa ATCC 27853
[15] = test system: Lacticaseibacillus rhamnosus 1.0911
[16] = test system: Lacticaseibacillus rhamnosus 8014
[17] = test system: Salmonella enterica subsp. enterica serovar Choleraesuis CVCC 503
[18] = test system: Escherichia coli O157:H7 CICC 21530
[19] = test system: Staphylococcus aureus ATCC 43300
[20] = test system: Escherichia coli ATCC 25922
[21] = test system: Salmonella enterica subsp. enterica serovar Typhimurium ATCC 14028
[22] = test system: Lacticaseibacillus rhamnosus 1.9021
[23] = test system: Salmonella enterica subsp. enterica serovar Pullorum C79-13
[24] = test system: Pseudomonas aeruginosa PAO1
Escherichia coli K88 = test system: Escherichia coli K88
[25] = test system: Staphylococcus aureus ATCC 29213
[26] = test system: Streptococcus agalactiae BNCC 185941
Candida albicans = test system: Candida albicans
Staphylococcus aureus = test system: Staphylococcus aureus
Pseudomonas aeruginosa = test system: Pseudomonas aeruginosa
Escherichia coli = test system: Escherichia coli
[27] = test system: Candida albicans ATCC 90029
Escherichia coli J2210 = test system: Escherichia coli J2210
[28] = test system: Salmonella enterica subsp. enterica serovar Enteritidis MH91989
Escherichia coli O157:H7 = test system: Escherichia coli O157:H7
Escherichia coli JW0013 = test system: Escherichia coli JW0013
Escherichia coli MC1061 = test system: Escherichia coli MC1061
[29] = test system: Salmonella typhimurium SL1344
Escherichia coli JJ2487 = test system: Escherichia coli JJ2487
[30] = test system: Listeria monocytogenes NCTC 18890
[31] = test system: Listeria monocytogenes ATCC 7644
[32] = test system: Listeria monocytogenes ATCC 19114
Listeria monocytogenes = test system: Listeria monocytogenes
[33] = test system: Listeria monocytogenes ATCC 19115

MIC [1]: 25 µM (≈ 37.9 µg/mL)
MIC [2]: ≥ 50 µM
Structure (SMILES): CC[C@H](C)[C@H](NC(=O)[C@H](CC(=O)O)NC(=O)[C@H](Cc1ccccc1)NC(=O)[C@H](CC(C)C)NC(=O)CN)C(=O)N[C@@H](CCCCN)C(=O)N[C@@H](CCCCN)C(=O)N[C@H](C(=O)N[C@@H](C)C(=O)N[C@@H](CO)C(=O)N[C@H](C(=O)N[C@H](C(=O)NCC(=O)NCC(=O)N[C@@H](CC(C)C)C(N)=O)[C@@H](C)CC)C(C)C)C(C)C [GLFDIKKVASVIGGL]

MIC (Escherichia coli DC2): 11.6 µM (≈ 32 µg/mL)
MIC [3]: 23.3 µM (≈ 64 µg/mL)
MIC [4]: 11.6 µM (≈ 32 µg/mL)
MIC [5]: 23.3 µM (≈ 64 µg/mL)
MIC [6]: 2.91 µM (≈ 7.99 µg/mL)
MIC [7]: 5.82 µM (≈ 16 µg/mL)
MIC [8]: 23.3 µM (≈ 64 µg/mL)
MIC [9]: 2.91 µM (≈ 7.99 µg/mL)
MIC (Escherichia coli UB1005): 5.82 µM (≈ 16 µg/mL)
MIC [10]: 11.6 µM (≈ 32 µg/mL)
MIC (Candida albicans C627): 23.3 µM (≈ 64 µg/mL)
MIC [11]: 2.91 µM (≈ 7.99 µg/mL)
Structure (SMILES): CC[C@H](C)[C@H](NC(=O)[C@H](CC(C)C)NC(=O)CNC(=O)[C@H](Cc1cnc[nH]1)NC(=O)[C@@H](NC(=O)[C@H](Cc1c[nH]c2ccccc12)NC(=O)[C@H](CCCCN)NC(=O)CNC(=O)[C@@H](NC(=O)[C@H](Cc1cnc[nH]1)NC(=O)[C@H](Cc1cnc[nH]1)NC(=O)[C@@H](NC(=O)CNC(=O)[C@H](Cc1cnc[nH]1)NC(=O)[C@H](Cc1ccccc1)NC(=O)[C@H](CC(C)C)NC(=O)[C@H](CC(C)C)NC(=O)CNC(=O)[C@H](CC(C)C)NC(=O)[C@@H](N)Cc1ccccc1)C(C)C)C(C)C)[C@@H](C)CC)C(=O)N[C@@H](Cc1cnc[nH]1)C(=O)NCC(=O)N[C@@H](Cc1cnc[nH]1)C(=O)N[C@@H](Cc1cnc[nH]1)C(C)=O [FLGLLFHGVHHVGKWIHGLIHGHH]

MIC [12]: 128 µM (≈ 179 µg/mL)
MIC [13]: ≥ 128 µM
MIC [14]: 4 µM (≈ 5.58 µg/mL)
MIC [15]: ≥ 64 µM
MIC [16]: ≥ 128 µM
MIC [18]: 8 µM (≈ 11.2 µg/mL)
MIC [19]: 16 µM (≈ 22.3 µg/mL)
MIC [20]: 4 µM and 8 µM
MIC [21]: 32 µM (≈ 44.6 µg/mL)
MIC [22]: ≥ 128 µM
MIC [23]: 2 µM (≈ 2.79 µg/mL)
MIC [24]: 8 µM (≈ 11.2 µg/mL)
MIC (Escherichia coli K88): 2 µM (≈ 2.79 µg/mL)
MIC [25]: 16 µM (≈ 22.3 µg/mL)
MIC [26]: ≥ 128 µM
Structure (SMILES): CC(C)C[C@H](NC(=O)CNC(=O)[C@H](CC(C)C)NC(=O)[C@H](Cc1c[nH]c2ccccc12)NC(=O)[C@H](CC(C)C)NC(=O)CNC(=O)[C@H](CC(C)C)NC(=O)[C@H](CCCN=C(N)N)NC(=O)[C@@H](N)CCCN=C(N)N)C(=O)N[C@@H](CCCN=C(N)N)C(=O)N[C@@H](CCCN=C(N)N)C(N)=O [RRLGLWLGLRR]
MIC [17]: ≥ 128 µM

MIC (Candida albicans): > 154 µM
MIC (Staphylococcus aureus): 4.83 µM (≈ 6.25 µg/mL)
MIC (Pseudomonas aeruginosa): 4.83 µM (≈ 6.25 µg/mL)
MIC [20]: 4.83 µM (≈ 6.25 µg/mL)
MIC (Escherichia coli): 9.66 µM (≈ 12.5 µg/mL)
MIC [27]: ≥ 154 µM
MIC [25]: 4.83 µM (≈ 6.25 µg/mL)
Structure (SMILES): CC(C)C[C@H](NC(=O)[C@H](CO)NC(=O)[C@H](Cc1cnc[nH]1)NC(=O)[C@H](CO)NC(=O)[C@H](CC(C)C)NC(=O)[C@H](CC(C)C)NC(=O)[C@@H](N)CCCCN)C(=O)N[C@@H](CC(C)C)C(=O)N[C@H](C(=O)N[C@H](C(=O)N[C@@H](CC(C)C)C(=O)N[C@@H](C)C(=O)O)[C@@H](C)O)C(C)C [KLLSHSLLVTLA]

Structure (SMILES): CC[C@H](C)[C@H](NC(=O)[C@H](CCCN=C(N)N)NC(=O)[C@H](CCCN=C(N)N)NC(=O)[C@@H]1CCCN1C(=O)[C@@H]1CCCN1C(=O)[C@H](CCCN=C(N)N)NC(=O)[C@@H]1CCCN1C(=O)[C@H](CCCN=C(N)N)NC(=O)[C@@H]1CCCN1C(=O)[C@H](CCCCN)NC(=O)[C@H](Cc1ccc(O)cc1)NC(=O)[C@@H]1CCCN1C(=O)[C@H](CCCN=C(N)N)NC(=O)[C@H](CCCCN)NC(=O)[C@H](CC(=O)O)NC(=O)[C@@H](N)C(C)C)C(=O)N[C@@H](Cc1ccc(O)cc1)C(=O)N[C@@H](CC(N)=O)C(=O)N[C@@H](CCCN=C(N)N)C(N)=O [VDKRPYKPRPRPPRRIYNR]
MIC (Escherichia coli J2210): 0.122 µM (≈ 0.3 µg/mL)
MIC [28]: 0.158 µM (≈ 0.39 µg/mL)
MIC (Escherichia coli O157:H7): 0.974 µM (≈ 2.4 µg/mL)
MIC (Escherichia coli JW0013): 0.337 µM (≈ 0.83 µg/mL)
MIC (Escherichia coli MC1061): 0.0609 µM (≈ 0.15 µg/mL)
MIC [29]: 0.158 µM (≈ 0.39 µg/mL)
MIC (Escherichia coli JJ2487): 0.158 µM (≈ 0.39 µg/mL)

MIC [30]: ≥ 1960 µM
MIC [31]: ≥ 1960 µM
MIC [32]: ≥ 1960 µM
MIC (Listeria monocytogenes): ≥ 1960 µM
MIC [33]: ≥ 1960 µM
Structure (SMILES): CSCC[C@H](N)C(=O)N[C@@H](CCCN=C(N)N)C(=O)NCC(=O)N[C@@H](CO)C(=O)N[C@@H](Cc1cnc[nH]1)C(=O)N[C@@H](Cc1cnc[nH]1)C(=O)N[C@@H](Cc1cnc[nH]1)C(=O)N[C@@H](Cc1cnc[nH]1)C(=O)N[C@@H](Cc1cnc[nH]1)C(=O)N[C@@H](Cc1cnc[nH]1)C(=O)NCC(=O)N[C@@H](CO)C(=O)N[C@@H](CO)C(=O)NCC(=O)N[C@@H](CCC(=O)O)C(=O)N[C@@H](CC(N)=O)C(=O)N[C@@H](CC(C)C)C(=O)N[C@@H](Cc1ccc(O)cc1)C(=O)N[C@@H](Cc1ccccc1)C(=O)N[C@@H](CCC(N)=O)C(=O)N[C@@H](CO)C(=O)N[C@@H](CC(C)C)C(=O)O [MRGSHHHHHHGSSGENLYFQSL]
